Source: patent publication EP4796551A1, “ZWITTERIONIC PHOSPHOLIPID COMPOUND AND LIPID NANOPARTICLE CONTAINING THE SAME” (National University Corporation Hokkaido University, priority 2023, dated 2025)

Columns and labels:
Assay type in all cases: physicochemical
[1] = Particle size, PDI and ζ-potential of mRNA-LNP (Zetasizer Nano ZS); conditions: mRNA-LNP formulation phospholipid:CL4F6:Chol:PEG-DMG 10:50:40:1.0, Fluc mRNA
Description: (§1) Ethanol solutions containing each phospholipid, CL4F6, Chol, and PEG2000-dimirystoylglycerol (PEG-DMG) at the molar ratio of 10:50:40:1.0 were prepared at the total lipid concentration of 16 mM. For fluorescent labeling of LNPs, 0.5 mol% of DiI or DiR was added to the above solutions. The firefly luciferase (Fluc)-encoding mRNA (TriLink) was dissolved in a 25 mM acetate buffer (pH 4.0). LNPs were prepared by mixing the lipids in ethanol and RNA in an aqueous solution using an iLiNP device at a total flow rate (TFR) of 0.5 mL/min and a flow rate ratio (FRR) (RNA flow rate/lipid flow rate) of 3. The nitrogen to phosphate (N/P) ratio was adjusted to 6. Syringe pumps (Harvard apparatus) were used to control the flow rate of the solutions. The resulting LNP solutions were then dialyzed for 2 hours or more at 4 °C against phosphate buffered saline without Ca^2+ and Mg^2+ (PBS(-)) using Spectra/Por 4 dialysis membranes (molecular weight cut-off 12,000-14,000 Da, Spectrum Laboratories). The LNP solutions were concentrated by ultrafiltration using an Amicon Ultra-15 unit (MWCO 100 kDa, Millipore) as needed.
(§2) The ζ-average particle size, polydispersity index (PDI), and ζ-potential of the LNPs were measured by means of a Zetasizer Nano ZS ZEN3600 instrument (Malvern Instruments). The encapsulation efficiency and total concentration of mRNA were measured by a Ribogreen assay according to a conventional method.

[2] = Ribogreen assay, mRNA encapsulation efficiency of LNP; conditions: mRNA-LNP formulation phospholipid:CL4F6:Chol:PEG-DMG 10:50:40:1.0, Fluc mRNA
Description: as §1, §2

[3] = Lipid polymorphism by 31P NMR method (mixtures with POPC); conditions: lipid:POPC molar ratio 1:1, 20 mM HEPES pH 7.4, room temperature
Description: In order to examine the interaction between DOPE-Cx and PC and characteristics thereof, lipid polymorphism of the lipid suspension was evaluated by a ^31P NMR method. Since the rotational motion of lipid molecules in a lamellar phase which is a planar structure and a (inverted) hexagonal phase which is a tubular structure receives different restrictions respectively, a specific ^31P NMR spectrum is provided by chemical shift anisotropy. Specifically, the lamellar phase produces a broad […] peak, and the (inverted) hexagonal phase produces a broad […] peak.
First, DOPE or DOPE-C8 and 1-palmitoyl-2-oleoyl-sn-glycero-3-phosphocholine (POPC) were mixed at a predetermined ratio in 400 µL of chloroform (total lipid 16 µmol), and the solvent was removed by a rotary evaporator to form a lipid membrane. The lipid membrane was hydrated with 500 µL of 20 mM HEPES buffer (pH 7.4, 130 mM NaCl) at 60°C. Then, the lipid dispersion was transferred to an NMR tube, and a ^31P NMR spectrum at room temperature was measured by a conventional method using an ECX 400P spectrometer (JEOL Ltd.).

Compound | Number average particle size (nm) ([1]; Table 1) | PDI ([1]; Table 1) | ζ-potential (mV) ([1]; Table 1) | ζ-average particle size (nm) ([1]; Table 1, N/P 6) | mRNA encapsulation rate % ([2]; Table 1) [%] | Number average particle size (nm) ([1]; Table 2) | PDI ([1]; Table 2) | ζ-average particle size (nm) ([1]; Table 2) | ζ-potential (mV) ([1]; Table 2) | mRNA encapsulation rate % ([2]; Table 2) [%] | lipid phase by 31P NMR spectrum [3] | other results
CCCCCCCC/C=C\CCCCCCCC(=O)OC[C@H](COP(=O)(O)OCCNCCC(=O)OC(CC)CC)OC(=O)CCCCCCC/C=C\CCCCCCCC [DOPE-C3_α2, (R)-2,3-bis(oleoyloxy)propyl (2-((3-oxo-3-(pentan-3-yloxy)propyl)ammonio)ethyl) phosphate] | – | – | – | – | – | – | – | – | – | – | – | Number average particle size (nm) ([1]; Table 3): 54 nm; PDI ([1]; Table 3): 0.20; ζ-average particle size (nm) ([1]; Table 3): 91 nm; ζ-potential (mV) ([1]; Table 3): -10.5 mV; mRNA encapsulation rate % ([2]; Table 3): 97.2%
CCCCCCCC/C=C\CCCCCCCC(=O)OC[C@H](COP(=O)(O)OCCNCCC(=O)OCCCC)OC(=O)CCCCCCC/C=C\CCCCCCCC [DOPE-C4, (R)-2,3-bis(oleoyloxy)propyl (2-((3-butoxy-3-oxopropyl)ammonio)ethyl) phosphate] | 58 | 0.17 | -5.0 | 87 | 91.2 | – | – | – | – | – | – | –
CCCCCCCC/C=C\CCCCCCCC(=O)OC[C@H](COP(=O)(O)OCCNCCC(=O)OC(CCC)CCC)OC(=O)CCCCCCC/C=C\CCCCCCCC [DOPE-C4_α3, (R)-2,3-bis(oleoyloxy)propyl (2-((3-(heptan-4-yloxy)-3-oxopropyl)ammonio)ethyl) phosphate] | – | – | – | – | – | – | – | – | – | – | – | Number average particle size (nm) ([1]; Table 3): 52 nm; PDI ([1]; Table 3): 0.21; ζ-average particle size (nm) ([1]; Table 3): 91 nm; ζ-potential (mV) ([1]; Table 3): -12.0 mV; mRNA encapsulation rate % ([2]; Table 3): 97.1%
CCCCCCCC/C=C\CCCCCCCC(=O)OC[C@H](COP(=O)(O)OCCNCCC(=O)OCC(C)CCC)OC(=O)CCCCCCC/C=C\CCCCCCCC (stereo partly drawn) [DOPE-C5_β1, (R)-2,3-bis(oleoyloxy)propyl (2-((3-((2-methylpentyl)oxy)-3-oxopropyl)ammonio)ethyl) phosphate] | – | – | – | – | – | 60 | 0.21 | 94 | -6.4 | 95.9 | – | –
CCCCCCCC/C=C\CCCCCCCC(=O)OC[C@H](COP(=O)(O)OCCNCCC(=O)OCC(CCC)CCCCC)OC(=O)CCCCCCC/C=C\CCCCCCCC (stereo partly drawn) [DOPE-C7_β3, (R)-2,3-bis(oleoyloxy)propyl (2-((3-oxo-3-((2-propylheptyl)oxy)propyl)ammonio)ethyl) phosphate] | – | – | – | – | – | 61 | 0.08 | 79 | -9.6 | 96.0 | the ratio derived from the inverted hexagonal phase increased | –
CCCCCCCC/C=C\CCCCCCCC(=O)OC[C@H](COP(=O)(O)OCCNCCC(=O)OCC(CCCC)CCCCCC)OC(=O)CCCCCCC/C=C\CCCCCCCC (stereo partly drawn) [DOPE-C8_β4, (R)-2,3-bis(oleoyloxy)propyl (2-((3-((2-butyloctyl)oxy)-3-oxopropyl)ammonio)ethyl) phosphate] | – | – | – | – | – | 71 | 0.21 | 112 | -5.8 | 96.3 | the ratio derived from the inverted hexagonal phase increased | –
CCCCCCCC/C=C\CCCCCCCCOC(=O)CCNCCOP(=O)(O)OC[C@@H](COC(=O)CCCCCCC/C=C\CCCCCCCC)OC(=O)CCCCCCC/C=C\CCCCCCCC [DOPE-C18:1, (R)-2,3-bis(oleoyloxy)propyl (2-((3-(((Z)-octadeca-9-ene-1-yl)oxy)-3-oxopropyl)ammonio)ethyl) phosphate] | 56 | 0.18 | -2.9 | 81 | 93.9 | – | – | – | – | – | the ratio derived from the inverted hexagonal phase increased | –
CCCCCCCC/C=C\CCCCCCCC(=O)OC[C@H](COP(=O)(O)OCCNCCC(=O)OCCC(C)CCC=C(C)C)OC(=O)CCCCCCC/C=C\CCCCCCCC (stereo partly drawn) [DOPE-Cit, (R)-2,3-bis(oleoyloxy)propyl (2-((3-((3,7-dimethyloct-6-en-1-yl)oxy)-3-oxopropyl)ammonio)ethyl) phosphate] | – | – | – | – | – | 65 | 0.07 | 85 | -6.1 | 95.9 | – | –

Second part, led by results:

Number average particle size (nm) ([1]; Table 1) | PDI ([1]; Table 1) | ζ-potential (mV) ([1]; Table 1) | ζ-average particle size (nm) ([1]; Table 1, N/P 6) | mRNA encapsulation rate % ([2]; Table 1) [%] | Number average particle size (nm) ([1]; Table 2) | PDI ([1]; Table 2) | ζ-average particle size (nm) ([1]; Table 2) | ζ-potential (mV) ([1]; Table 2) | mRNA encapsulation rate % ([2]; Table 2) [%] | Compound | lipid phase by 31P NMR spectrum [3] | other results
59 | 0.15 | -1.4 | 86 | 91.5 | – | – | – | – | – | CCCCCCCC/C=C\CCCCCCCC(=O)OC[C@H](COP(=O)(O)OCCNCCC(=O)OCCCCCC)OC(=O)CCCCCCC/C=C\CCCCCCCC [DOPE-C6, (R)-2,3-bis(oleoyloxy)propyl (2-((3-(hexyloxy)-3-oxopropyl)ammonio)ethyl) phosphate] | – | –
48 | 0.18 | -7.0 | 82 | 93.1 | – | – | – | – | – | CCCCCCCC/C=C\CCCCCCCC(=O)OC[C@H](COP(=O)(O)OCCNCCC(=O)OCCCCCCCCCC)OC(=O)CCCCCCC/C=C\CCCCCCCC [DOPE-C10, (R)-2,3-bis(oleoyloxy)propyl (2-((3-(decyloxy)-3-oxopropyl)ammonio)ethyl) phosphate] | the ratio derived from the inverted hexagonal phase increased | –
59 | 0.25 | -6.3 | 100 | 94.2 | – | – | – | – | – | CCCCCCCC/C=C\CCCCCCCC(=O)OC[C@H](COP(=O)(O)OCCNCCC(=O)OCCCCCCCCCCCC)OC(=O)CCCCCCC/C=C\CCCCCCCC [DOPE-C12, (R)-2,3-bis(oleoyloxy)propyl (2-((3-(dodecyloxy)-3-oxopropyl)ammonio)ethyl) phosphate] | the ratio derived from the inverted hexagonal phase increased | –
56 | 0.08 | -3.6 | 75 | 95.7 | – | – | – | – | – | CCCCCCCCCCCCCCCCCC(=O)OC[C@H](COP(=O)([O-])OCC[N+](C)(C)C)OC(=O)CCCCCCCCCCCCCCCCC [DSPC, 1,2-Distearoyl-sn-glycero-3-phosphocholine, reference compound] | – | –
